Assay results published in patent US20250263370A1 (Tay Therapeutics Limited, priority 2022, published 2025).
Where two headings read alike, the source gives them in different places.

Key:
[1] = Beagle dog PK study 1 of Example 101 (propylene glycol-based formulation, IV and PO), with clinical observations; assay type: in vivo; settings: for concentration at 0.083 h / concentration at 0.25 h / concentration at 0.5 h / concentration at 1 h / concentration at 2 h / concentration at 4 h / concentration at 8 h / concentration at 24 h / AUC(0-inf) / AUC(0-t) / C0 / half-life / MRT inf / Vd / Cmax / Tmax: beagle, dog, plasma; for concentration at 0.083 h / concentration at 0.25 h / concentration at 0.5 h / concentration at 1 h / concentration at 2 h / concentration at 4 h / concentration at 8 h / concentration at 24 h: dog PK study 1, IV; for MRT inf: read-out: MRTInf—obs; for Vd: read-out: Vss—obs; for animal's temperature: test animal 3 in group 1 (1 mg/kg IV)
Method: The purpose of this study was to examine the pharmacokinetics of Example 101 in beagle dogs. […] An oral PK study was also undertaken in Lewis rats—see Experimental Method C.
Body weight was recoded prior to dosing, and detailed clinical observations were made prior to dosing and throughout the study, as needed.
Subsequently, 17.320 mL Vitamin E TPGS was added, and the solution was vortexed and sonicated. Then, 51.960 mL water was added, and solution was then heated. […] Subsequently, 39.894 mL Vitamin E TPGS was added, and the solution was vortexed and sonicated. Then, 119.682 mL water was added, and the solution was heated.
Blood samples (˜0.3 mL) were collected according to a schedule (detailed below) by venipuncture of peripheral veins except for the dosing vein, and EDTA-K2 was used as anticoagulant. Within 30 minutes of collection, the samples were centrifuged at approximately 2000×g for 10 minutes at 4° C. to obtain blood plasma. The plasma samples were immediately divided into two aliquots (˜75 μL each), transferred to a cryogenic vial, and stored in a freezer at −75±15° C. prior to analysis. […]
The experiments were conducted on a Shimadzu DGU-20A5R and AB API 5500+LC/MS/MS instrument with an Agilent Poroshell EC-C18 4 μm (50×2.1 mm) column. A gradient of 95% water (0.1% formic acid)/95% acetonitrile (0.1% formic acid) was used as the mobile phase. The sample injection volume was 1 μL, and the flow rate was 0.6 mL/min. The gathered data were used for pharmacokinetic calculations using T½, C0, AUClast, AUCinf, MRTinf, CI, Vss, and Number of Points for Regression as parameters.

BD 2 = BD 2 (Homo sapiens, UniProt O60885); assay: Free EC50 for BD 2, compared with plasma concentration
[2] = iv, 1 mg/kg, Test Animal 1, read-out: Plasma concentration
[3] = iv, 1 mg/kg, Test Animal 2, read-out: Plasma concentration
[4] = iv, 1 mg/kg, Test Animal 3, read-out: Plasma concentration
[5] = iv, 1 mg/kg, mean, read-out: Average plasma concentration, Mean
[6] = iv, 1 mg/kg, dog PK study 1, intravenous, Test Animal 1
[7] = iv, 1 mg/kg, dog PK study 1, intravenous, Test Animal 2
[8] = iv, 1 mg/kg, dog PK study 1, intravenous, Test Animal 3
[9] = iv, 1 mg/kg, dog PK study 1, intravenous, mean
[10] = po, 5 mg/kg, dog PK study 1, oral, Test Animal 1
[11] = po, 5 mg/kg, dog PK study 1, oral, Test Animal 2
[12] = po, 5 mg/kg, dog PK study 1, oral, Test Animal 3
[13] = po, 5 mg/kg, dog PK study 1, oral, mean
[14] = dog PK study 1, intravenous, Test Animal 1
[15] = dog PK study 1, intravenous, Test Animal 2
[16] = dog PK study 1, intravenous, Test Animal 3
[17] = dog PK study 1, intravenous, mean
[18] = dog PK study 1, oral, Test Animal 1
[19] = dog PK study 1, oral, Test Animal 2
[20] = dog PK study 1, oral, Test Animal 3

## CNC(=O)c1[nH]c(C(=O)NC2CCC2)cc1O[C@@H](C)c1ccccc1 (stereo in doubt) [Example 101, N^5-cyclobutyl-N^2-methyl-3-(1-phenylethoxy)-1H-pyrrole-2,5-dicarboxamide]
[1]; beagle dogs, 1 mg/kg IV, group 1
  plasma concentration as a function of time (FIG. 1A): Decreases in plasma concentration were consistent across all animals and timepoints
[1]; beagle dogs, 5 mg/kg PO, group 2
  time post-administration at which plasma concentrations began to steadily decrease (FIG. 1B): approximately 1 h
[1]; beagle dogs, PK studies 1 and 2, oral and intravenous
  tolerability: capable of being administered orally and intravenously and well tolerated
[1]; [2]
  concentration at 0.083 h: 1340 ng/mL
  concentration at 0.25 h: 1120 ng/mL
  concentration at 0.5 h: 1040 ng/mL
  concentration at 1 h: 623 ng/mL
  concentration at 2 h: 314 ng/mL
  concentration at 4 h: 81.6 ng/mL
  concentration at 8 h: 15.7 ng/mL
  concentration at 24 h: 0 ng/mL
[1]; [3]
  concentration at 0.083 h: 1320 ng/mL
  concentration at 0.25 h: 954 ng/mL
  concentration at 0.5 h: 747 ng/mL
  concentration at 1 h: 580 ng/mL
  concentration at 2 h: 265 ng/mL
  concentration at 4 h: 56.5 ng/mL
  concentration at 8 h: 3.65 ng/mL
  concentration at 24 h: 0 ng/mL
[1]; [4]
  concentration at 0.083 h: 1370 ng/mL
  concentration at 0.25 h: 1110 ng/mL
  concentration at 0.5 h: 867 ng/mL
  concentration at 1 h: 520 ng/mL
  concentration at 2 h: 313 ng/mL
  concentration at 4 h: 68 ng/mL
  concentration at 8 h: 4.61 ng/mL
  concentration at 24 h: 0 ng/mL
[1]; [5]
  concentration at 0.083 h: 1340 ng/mL
  concentration at 0.25 h: 1060 ng/mL
  concentration at 0.5 h: 885 ng/mL
  concentration at 1 h: 574 ng/mL
  concentration at 2 h: 297 ng/mL
  concentration at 4 h: 68.7 ng/mL
  concentration at 8 h: 8 ng/mL
  concentration at 24 h: 0 ng/mL
[1]; [6]
  AUC(0-inf): 2100 ng·h/mL
  AUC(0-t): 2070 ng·h/mL
  C0: 1460 ng/mL
  half-life: 1.42 h
  MRT inf: 1.54 h
  Vd: 0.734 L/kg
[1]; [7]
  AUC(0-inf): 1720 ng·h/mL
  AUC(0-t): 1720 ng·h/mL
  C0: 1550 ng/mL
  half-life: 0.976 h
  MRT inf: 1.29 h
  Vd: 0.747 L/kg
[1]; [8]
  AUC(0-inf): 1870 ng·h/mL
  AUC(0-t): 1860 ng·h/mL
  C0: 1520 ng/mL
  half-life: 0.992 h
  MRT inf: 1.35 h
  Vd: 0.719 L/kg
[1]; [9]
  AUC(0-inf): 1900 ng·h/mL
  AUC(0-t): 1880 ng·h/mL
  C0: 1510 ng/mL
  half-life: 1.13 h
  MRT inf: 1.39 h
  Vd: 0.733 L/kg
[1]; [10]
  AUC(0-t): 4520 ng·h/mL
  Cmax: 2220 ng/mL
  Tmax: 1 h
[1]; [11]
  AUC(0-inf): 2960 ng·h/mL
  AUC(0-t): 2930 ng·h/mL
  Cmax: 1550 ng/mL
  Tmax: 0.5 h
  half-life: 1.15 h
  MRT inf: 1.62 h
[1]; [12]
  AUC(0-inf): 5010 ng·h/mL
  AUC(0-t): 5000 ng·h/mL
  Cmax: 2240 ng/mL
  Tmax: 1 h
  half-life: 0.845 h
  MRT inf: 1.83 h
[1]; [13]
  AUC(0-inf): 3980 ng·h/mL
  AUC(0-t): 4150 ng·h/mL
  Cmax: 2000 ng/mL
  Tmax: 0.83 h
  half-life: 1 h
  MRT inf: 1.73 h
[1]; [14]
  AUClast/D: 2066 (ng · h/mL)/(mg/kg)
  AUC—% Extrap—obs: 1.54%
  Cl_obs: 7.94 mL/min/kg
[1]; [15]
  AUClast/D: 1718 (ng · h/mL)/(mg/kg)
  AUC—% Extrap—obs: 0.298%
  Cl_obs: 9.67 mL/min/kg
[1]; [16]
  AUClast/D: 1864 (ng · h/mL)/(mg/kg)
  AUC—% Extrap—obs: 0.353%
  Cl_obs: 8.91 mL/min/kg
[1]; [17]
  AUClast/D: 1883 (ng · h/mL)/(mg/kg)
  AUC—% Extrap—obs: 0.73%
  Cl_obs: 8.84 mL/min/kg
[1]; [18]
  AUClast/D: 903 (ng · h/mL)/(mg/kg)
  F: 48.0%
[1]; [19]
  AUClast/D: 586 (ng · h/mL)/(mg/kg)
  AUC—% Extrap—obs: 0.831%
  F: 31.1%
[1]; [20]
  AUClast/D: 1000 (ng · h/mL)/(mg/kg)
  AUC—% Extrap—obs: 0.232%
  F: 52.8%
[1]; dog PK study 1, oral, mean
  AUClast/D: 830 (ng · h/mL)/(mg/kg)
  AUC—% Extrap—obs: 0.531%
  F: 44.0%
[1]; 4 h timepoint
  animal's temperature: 36.4 °C
[1]; 6 h timepoint
  animal's temperature: 38.1 °C
BD 2
  EC50: 606 nM
